IC50 data for 2 molecules are collected here from paper PMC5979471, “Telomerase Inhibition by a New Synthetic Derivative of the Aporphine Alkaloid Boldine” (International Journal of Molecular Sciences, 2018).

Counter-ions that a name gives are not always drawn.

For this assay, the target named is T1, telomerase (catalytic subunit TERT) (Homo sapiens, UniProt O14746).
T1 construct: with telomerase RNA component TER (endogenous telomerase ribonucleoprotein in MCF7 lysate)
The assay is described as follows: q-TRAP-ligand assay in MCF7 cell lysate, compound added before telomere elongation. Format: biochemical.

T1 sequence (O14746 whole entry): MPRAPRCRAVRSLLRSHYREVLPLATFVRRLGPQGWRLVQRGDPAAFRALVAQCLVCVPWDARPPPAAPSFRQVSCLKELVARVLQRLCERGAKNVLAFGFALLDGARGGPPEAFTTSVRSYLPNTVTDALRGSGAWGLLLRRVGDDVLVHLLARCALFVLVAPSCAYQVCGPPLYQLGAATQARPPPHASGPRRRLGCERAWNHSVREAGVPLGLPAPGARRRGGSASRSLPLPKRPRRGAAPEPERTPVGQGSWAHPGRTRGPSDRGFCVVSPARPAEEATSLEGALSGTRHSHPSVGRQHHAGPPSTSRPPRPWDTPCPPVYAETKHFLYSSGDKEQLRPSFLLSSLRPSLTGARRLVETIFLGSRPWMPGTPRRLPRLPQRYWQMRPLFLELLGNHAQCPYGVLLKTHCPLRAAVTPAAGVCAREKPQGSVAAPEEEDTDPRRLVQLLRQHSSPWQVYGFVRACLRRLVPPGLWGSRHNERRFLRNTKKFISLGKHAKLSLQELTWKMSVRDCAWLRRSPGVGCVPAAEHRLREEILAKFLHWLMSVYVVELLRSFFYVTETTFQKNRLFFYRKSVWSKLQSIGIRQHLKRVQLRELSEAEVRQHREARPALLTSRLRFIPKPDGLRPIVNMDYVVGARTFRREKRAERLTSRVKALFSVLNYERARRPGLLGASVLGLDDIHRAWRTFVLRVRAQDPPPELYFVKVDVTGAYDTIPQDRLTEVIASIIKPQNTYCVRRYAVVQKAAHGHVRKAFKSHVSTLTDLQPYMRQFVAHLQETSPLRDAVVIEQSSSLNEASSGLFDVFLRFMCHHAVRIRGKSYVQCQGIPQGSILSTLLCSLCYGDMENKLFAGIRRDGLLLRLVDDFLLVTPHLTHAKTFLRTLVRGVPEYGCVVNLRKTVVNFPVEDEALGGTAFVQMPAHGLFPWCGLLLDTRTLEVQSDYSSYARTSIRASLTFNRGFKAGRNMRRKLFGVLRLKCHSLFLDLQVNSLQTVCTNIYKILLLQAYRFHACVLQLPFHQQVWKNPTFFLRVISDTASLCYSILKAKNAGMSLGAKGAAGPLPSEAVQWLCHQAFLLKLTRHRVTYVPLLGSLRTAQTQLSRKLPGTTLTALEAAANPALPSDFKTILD

By IC50 is commonly meant the concentration that gives 50% inhibition. A lower IC50 goes with higher potency. In turn, `COc1cc2c(ccc3c(CCN(C)Cc4ccccc4)cc(O)c(OC)c32)cc1O` [BSB, N-benzylsecoboldine hydrochloride] returned an IC50 of 0.17 ± 0.1 µM. The result for `COc1cc2c(cc1O)C[C@H]1c3c(cc(O)c(OC)c3-2)CCN1C` [Boldine, 1,10-dimethoxy-2,9-dihydroxyaporphine] reads 68 ± 2.5 µM.
